Results taken from patent US6673574B2, “Oral delivery of peptides using enzyme-cleavable membrane translocators” (Unigene Laboratories Inc., priority 2000, dated 2004).
Like-named read-outs stand apart in the source and are kept apart here. One block for each molecule: values may come before it.

Key:
[1] = Absorption from rat duodenum: intraduodenal injection, plasma concentration by competitive enzyme immunoassay; type: in vivo; details: for Cmax: peak plasma concentration by inspection
Method: Female Sprague-Dawley rats (250-275 g) (n=4 for each peptide) were anesthetized with ketamine and xylazine prior to the insertion of a cannula in the carotid artery. The cannula was fitted to a three way valve through which blood was sampled and replaced with physiological saline containing heparin. A midline incision was made in the abdominal cavity, and 0.45 mL of either sCT-gly (10 mg/mL) or OmpA-MT3-sCT-gly (10 mg/mL) in 0.5M citric acid was injected directly into the duodenum. Blood (0.5 ml) was collected before and at 5, 15, 30, 45 and 60 minutes after administration of the peptides. The blood was centrifuged, and the concentration (± SEM [standard error of the mean]) of sCT-gly or OmpA-MT3-sCT-gly in the plasma supernatant was determined by a competitive enzyme immunoassay (EIA). Peak plasma concentration (Cmax) was determined by inspection. The absolute bioavailbilty of each peptide (relative to an intravenous dose of sCT [salmon calcitonin]) was calculated from plots of the plasma concentration of each peptide as a function to time.

[2] = Blood levels of salmon calcitonin after direct injection into duodenum, ileum or colon of rats; type: in vivo; details: rat, other: injected directly into the duodenum, active components injected directly into duodenum
Excerpt: The acid is believed to lower the local intestinal pH (where the active agent has been released) to levels below the optimal range for many intestinal proteases and other intestinal enzymes. This decrease in pH reduces the proteolytic activity of the intestinal proteases, thus affording protection to the peptide and the membrane translocator from potential degradation. The activity of these proteases is diminished by the temporarily acidic environment provided by the invention. It is preferred that sufficient acid be provided that local intestinal pH is lowered temporarily to 5.5 or below, preferably 4.7 or below and more preferably 3.5 or below. The sodium bicarbonate test described below (in the section captioned “the pH-Lowering Agent”) is indicative of the required acid amount.

[3] = cited from earlier work
[4] = 0 min (before administration), 0.45 mL of 10 mg/mL in 0.5M citric acid into duodenum, ± SEM, n=4

plasma concentration [1, 4]: 0.00 ng/mL
Cmax ([1]; female, Sprague-Dawley, 4.5 mg, intraduodenal, rat, ± SEM, read-out: Cmax): 223 ± 44.8 ng/mL
bioavailability ([1]; female, Sprague-Dawley, plasma, other: injected directly into the duodenum (intraduodenal), 4.5 mg, relative to an intravenous dose of sCT, intraduodenal, rat, ± SEM, read-out: Absolute bioavailability): 0.92 ± 0.23%
level at 5 min ([1]; female, Sprague-Dawley, rat, plasma, 4.5 mg per animal, 5 min after intraduodenal injection, ± SEM, n=4): 201 ± 73.7 ng/mL
level at 0.25 h ([1]; female, Sprague-Dawley, rat, plasma, 4.5 mg per animal, 15 min after intraduodenal injection, ± SEM, n=4): 116 ± 39.1 ng/mL
level at 0.5 h ([1]; female, Sprague-Dawley, rat, plasma, 4.5 mg per animal, 30 min after intraduodenal injection, ± SEM, n=4): 223 ± 44.8 ng/mL
level at 0.75 h ([1]; female, Sprague-Dawley, rat, plasma, 4.5 mg per animal, 45 min after intraduodenal injection, ± SEM, n=4): 151 ± 107 ng/mL
level at 1 h ([1]; female, Sprague-Dawley, rat, plasma, 4.5 mg per animal, 60 min after intraduodenal injection, ± SEM, n=4): 179 ± 76.2 ng/mL
Molecule: CC(C)C[C@H](NC(=O)[C@H](CCCCN)NC(=O)CNC(=O)[C@H](CC(C)C)NC(=O)[C@@H](NC(=O)[C@@H]1CSSC[C@H](N)C(=O)N[C@@H](CO)C(=O)N[C@@H](CC(N)=O)C(=O)N[C@@H](CC(C)C)C(=O)N[C@@H](CO)C(=O)N[C@@H]([C@@H](C)O)C(=O)N1)C(C)C)C(=O)N[C@@H](CO)C(=O)N[C@@H](CCC(N)=O)C(=O)N[C@@H](CCC(=O)O)C(=O)N[C@@H](CC(C)C)C(=O)N[C@@H](Cc1c[nH]cn1)C(=O)N[C@@H](CCCCN)C(=O)N[C@@H](CC(C)C)C(=O)N[C@@H](CCC(N)=O)C(=O)N[C@H](C(=O)N[C@@H](Cc1ccc(O)cc1)C(=O)N1CCC[C@H]1C(=O)N[C@@H](CCCNC(=N)N)C(=O)N[C@H](C(=O)N[C@@H](CC(N)=O)C(=O)N[C@H](C(=O)NCC(=O)N[C@@H](CO)C(=O)NCC(=O)N[C@H](C(=O)N1CCC[C@H]1C(=O)NCC(=O)O)[C@@H](C)O)[C@@H](C)O)[C@@H](C)O)[C@@H](C)O [sCT-gly, CYS-SER-ASN-LEU-SER-THR-CYS-VAL-LEU-GLY-LYS-LEU-SER-GLN-GLU-LEU-HIS-LYS-LEU-GLN-THR-TYR-PRO-ARG-THR-ASN-THR-GLY-SER-GLY-THR-PRO-GLY]

Tmax [2]: 5 to 15 min
Molecule: CC(C)C[C@H](NC(=O)[C@H](CCCCN)NC(=O)CNC(=O)[C@H](CC(C)C)NC(=O)[C@@H](NC(=O)[C@@H]1CSSC[C@H](N)C(=O)N[C@@H](CO)C(=O)N[C@@H](CC(N)=O)C(=O)N[C@@H](CC(C)C)C(=O)N[C@@H](CO)C(=O)N[C@@H]([C@@H](C)O)C(=O)N1)C(C)C)C(=O)N[C@@H](CO)C(=O)N[C@@H](CCC(N)=O)C(=O)N[C@@H](CCC(=O)O)C(=O)N[C@@H](CC(C)C)C(=O)N[C@@H](Cc1c[nH]cn1)C(=O)N[C@@H](CCCCN)C(=O)N[C@@H](CC(C)C)C(=O)N[C@@H](CCC(N)=O)C(=O)N[C@H](C(=O)N[C@@H](Cc1ccc(O)cc1)C(=O)N1CCC[C@H]1C(=O)N[C@@H](CCCNC(=N)N)C(=O)N[C@H](C(=O)N[C@@H](CC(N)=O)C(=O)N[C@H](C(=O)NCC(=O)N[C@@H](CO)C(=O)NCC(=O)N[C@H](C(=O)N1CCC[C@H]1C(N)=O)[C@@H](C)O)[C@@H](C)O)[C@@H](C)O)[C@@H](C)O [salmon calcitonin]
blood levels more than two hours after injection ([3]; conventional dosages): no detectable blood levels
peak level at which some patients report gastrointestinal distress ([3]; patients): ≥ 200 picograms per milliliter
half-life ([3]; subcutaneous administration in man): 20 to 40 min
peak serum concentration ([3]; subcutaneous, 100 International units): about 250 picograms per milliliter

B1: OmpA-MT3-sCT-gly: salmon calcitonin-Gly fused to two MTs, the unprocessed OmpA signal peptide and MTS3 (HIV TAT domain), with TRP-VAL-ALA cleavable sequence (protein)
chain: MKKTAIAIAVALAGFATVAQAYGRKKRRQRRRWVACSNLSTCVLGKLSQELHKLQTYPRTNTGSGTPG
modifications: ends and bridges not checked
plasma concentration [1, 4]: 0.00 ng/mL
plasma concentration ([1]; 5 min after intraduodenal injection, ± SEM, n=4): 563.07 ± 150.44 ng/mL
plasma concentration ([1]; 15 min after intraduodenal injection, ± SEM, n=4): 1861.86 ± 713.20 ng/mL
plasma concentration ([1]; 30 min after intraduodenal injection, ± SEM, n=4): 5603.76 ± 1749.75 ng/mL
plasma concentration ([1]; 45 min after intraduodenal injection, ± SEM, n=4): 3879.76 ± 713.62 ng/mL
plasma concentration ([1]; 60 min after intraduodenal injection, ± SEM, n=4): 6060.70 ± 2462.69 ng/mL
Cmax relative to that of sCT-gly ([1]; intraduodenal, rat): more than 25 fold
Cmax ([1]; intraduodenal, rat, ± SEM): 6060.70 ± 2462.69 ng/mL
Absolute bioavailability ([1]; relative to an intravenous dose of sCT, intraduodenal, rat, ± SEM): 21.26 ± 6.23%
